Experimental data published in patent US20260207788A1, “HEAVY ISOTOPE 3-BP MOLECULES, COMPOSITIONS, AND TREATMENTS” (KODISCOVERY, LLC, priority 2022, published 2026).
Read-outs that look alike come from different tables or passages of the source.

What was measured:
Type in all cases: cell-based
[1] = tested on: Panc-2 cells; assay: ATP assay (cell titer Glo2.0), ATP generation in panc-2 cells; details: 40 μM; for cells killed in terms of ATP generation: time not given
Procedure: (§1) In current study we have tested anti-tumor potency of 7, 3-BP analogues employing MTS and ATP assay. The percent viability of Pan-2 cells was determined in presence of graded concentration of 3BP analogues 0, 1, 2, 3, 4, 5, 6 & 7.
For ATP assay panc2 cells (2×10^3/in 100 ul media) were seeded in each well of 96 well luminescence plate (Corning, USA) for 12 hours in media described above. Cells were treated with KAT 0, 5, 20, 40, 80, 100 for 1, 2, 4, 8 hours. In separate experiments, cells were treated with KAT 40, 60 μM for 15, 30 & 60 min. At the end of each treatment, 100 ul ATP assay reagent cell titer Glo2.0 (Promega, USA) was added in each well, shacked on a rotating shaker for 2 mins, incubated at room temperature for 10 mins in dark and luminescence was measured with BIOTEK synergy HT.

[2] = tested on: Panc-2 cells; assay: MTS assay, percent viability of Panc-2 cells; details: for cell death: time not given; for viability at 40 µM / viability at 100 µM / viability at 80 µM: read-out: percent viability of Panc-2 cells
Procedure: as §1
Panc2 cells were seeded in either 6 well plate (6-6.5×10^4 cells/well/2 ml media) or in 12 well plate (3-3.5×10^4/1 ml media) or in 96 well plate ([…] /well/100 ul) in RPMI 1640 with 10% FBS, 0.5% antibiotic media for about 12 hours, in CO2 cell culture incubator at 37 °C. The cells were treated initially with KAT 0, 5, 20, 40, 80 and 100 uM for 1, 2, 4, 8 hours and latter in separate experiments with 40 and 60 µM for 15, 30, 1 hour. For each treatment KAT was added in a volume maximum 10 ul. For control same amount of KAT buffer was used. At the end of each time point treatment MTS reagent (Cell titer 96 aqueous one solution, Promega, USA) was added to each well according to the manufacturer instruction and incubated for approx. 2 hours. After that 100 ul from each well was transferred to 96 well plate (quartiles for each treatment) and measured absorbance at 490 nm with BIOTEK synergy HT. For 96 well plate reagent was added directly to each well, incubated for 2 hours and measured absorbance at 490 nm.

[3] = tested on: Panc-2 cells; assay: Imaging of morphology of treated panc-2 cells
[4] = tested on: Panc-2 cells; assay: MTS assay, percent viability of Panc-2 cells; details: 40 μM; for cell death (cells killed) in terms of MTT: after 8 hours; for cells killed in terms of MTT: time not given

With `O=C(O)C(=O)CBr` [Molecule 0, 3-Bromopyruvate, reference compound] the ATP generation ([1]; 1 hour treatment) was 80%, the ATP generation ([1]; after 8 hours) was 35% and the “cell death in Panc-2 cells” value ([2]; 40 μM, 1 hour treatment) was 58%. For the same compound, the “percent viability of Panc-2 cells” value ([2]; 40 μM, 8 hours treatment) was 24%, the cells killed ([2]; 80 μM, 1 hour treatment) was “about 97%” and the “cell death (cells killed)” value ([2]; 80 μM, 8 hours treatment) was 100%. For the same compound, the cell morphology ([3]; 40, 80 and 100 μM) was “change in morphology”.
`O=C(CBr)[13C](=O)O` [Molecule 1] was tested, and the “cell death (cells killed) in terms of MTT” value (“cell death … of MTT” below) [4] was 70%, the ATP generation ([1]; 1 hour treatment) was 57% and the ATP generation ([1]; after 8 hours) was 7%. The “cell death (cells killed) in terms of ATP generation” value (shortened to “cell death … of ATP generation”) ([1]; after 8 hours) was 93%, the cells killed ([2]; 80 μM, 1 hour treatment) was 79% and the “cell death (cells killed)” value ([2]; 80 μM, 8 hours treatment) was 96%. The cell death ([2]; 80 and 100 uM) was 95-97%, the viability at 40 µM ([2]; 1 h) was 54% and the viability at 40 µM ([2]; 8 h) was 30%. The cell morphology ([3]; 40 μM, after 8 hours) was “rounding and membrane blabbing”.
In the case of `O=C(O)[13C](=O)CBr` [Molecule 2], the “cells killed in terms of MTT” value [4] is reported as 40%, the ATP generation ([1]; 1 hour treatment) is reported as 83% and the ATP generation ([1]; after 8 hours) is reported as 68%. The “cells killed in terms of ATP generation” value [1] was 32%, the cells killed ([2]; 80 μM, 4 hour treatment) was “about 99%” and the viability at 40 µM ([2]; 1 h) was ~52%. For the same compound, the viability at 40 µM ([2]; 8 h) was ~60%, the viability at 100 µM [2] was ~0% and the cell morphology ([3]; 80 μM, time not given) was “rounding and membrane blabbing”.
For `O=C(O)C(=O)[13CH2]Br` [Molecule 3], the “cells killed in terms of MTT” value [4] was “about 54%”, the ATP generation ([1]; 1 hour treatment) was “about 80%” and the ATP generation ([1]; after 8 hours) was “about 66%”. The “cells killed in terms of ATP generation” value [1] was “about 34%”, the cells killed ([2]; 80 μM, 1 hour treatment) was ~88% and the viability at 40 µM ([2]; 1 h) was ~62%. For the same compound, the viability at 100 µM ([2]; 1 h) was ~5%, the viability at 40 µM ([2]; 8 h) was ~46% and the cell morphology ([3]; 40 μM, after 8 hours) was “rounding and membrane blabbing”.
`[2H]C([2H])(Br)C(=O)C(=O)O` [Molecule 4] was tested, and the “cells killed in terms of MTT” value [4] was 32-40%, the ATP generation ([1]; 1 hour treatment) was 91% and the ATP generation ([1]; after 8 hours) was “about 76%”. For the same compound, the “cells killed in terms of ATP generation” value [1] was 32-40%, the cells killed ([2]; 80 μM, 1 hour treatment) was “about 99%” and the cell death ([2]; 100 μM) was “about 100%”. The viability at 40 µM ([2]; 1 h) was ~58%, the viability at 40 µM ([2]; 8 h) was ~60% and the cell morphology ([3]; 80 μM, after 2 hours) was “rounding and membrane blabbing”.
For `OC(=[18O])C(=[18O])CBr` [Molecule 5], the “cells killed in terms of MTT” value [4] was “about 81%”, the ATP generation ([1]; 1 hour treatment) was “about 69%” and the ATP generation ([1]; after 8 hours) was “about 26%”. The “cells killed in terms of ATP generation” value [1] was “about 74%”, the viability at 40 µM ([2]; 1 h) was ~48% and the viability at 80 µM ([2]; 1 h) was ~6%. For the same compound, the viability at 40 µM ([2]; 8 h) was ~19%, the viability at 100 µM [2] was ~2% and the cell morphology ([3]; 40 μM, after 8 hours) was “rounding and membrane blabbing”.
In the case of `O=[13C](O)[13C](=O)[13CH2]Br` [Molecule 6], the “cell death … of MTT” value [4] is reported as “about 43%”, the ATP generation ([1]; 1 hour treatment) is reported as 73% and the ATP generation ([1]; after 8 hours) is reported as 26%. The “cell death … of ATP generation” value ([1]; after 8 hours) was “about 74%”, the viability at 40 µM ([2]; 1 h) was ~66% and the viability at 80 µM ([2]; 1 h) was ~32%. For the same compound, the viability at 100 µM ([2]; 1 h) was ~28%, the viability at 40 µM ([2]; 8 h) was ~57% and the cell morphology ([3]; 40 μM, after 8 hours) was “rounding and membrane blabbing”.
For `O=C(O)C(=O)CBr` [Molecule 7, 3-Bromopyruvate, reference compound], the “cell death … of MTT” value [4] was “about 43%”, the ATP generation ([1]; 1 hour treatment) was 79% and the ATP generation ([1]; after 8 hours) was 64%. The “cell death … of ATP generation” value ([1]; after 8 hours) was “about 74%”, the “percent viability of Panc-2 cells” value ([2]; 40 μM, 1 hour treatment) was “about 67%” and the “percent viability of Panc-2 cells” value ([2]; 40 μM, 8 hours treatment) was “about 46%”. The “percent viability of Panc-2 cells” value ([2]; 80 μM, 1 hour treatment) was “about 10%”, the “percent viability of Panc-2 cells” value ([2]; 100 μM, 1 hour treatment) was “about 4%” and the cell morphology ([3]; 40 μM, after 8 hours) was “rounding and membrane blabbing”.
